# In patent US4877881A, “Process of preparing pyrazoles, isoxazoles and analogs thereof having activity as 5-lipoxygenase inhibitors” (Warner-Lambert Company, priority 1988, dated 1989):
# Target: T1, 5-lipoxygenase (Rattus norvegicus, UniProt P12527)
# T1 construct: ARBL/ARBC Whole Cell 5-Lipoxygenase and Cyclooxygenase Assays; endogenous in cells; host or cells: RBL-1 rat basophilic leukemia cells (American Type Culture Collection)
# T1 sequence (P12527 1-673): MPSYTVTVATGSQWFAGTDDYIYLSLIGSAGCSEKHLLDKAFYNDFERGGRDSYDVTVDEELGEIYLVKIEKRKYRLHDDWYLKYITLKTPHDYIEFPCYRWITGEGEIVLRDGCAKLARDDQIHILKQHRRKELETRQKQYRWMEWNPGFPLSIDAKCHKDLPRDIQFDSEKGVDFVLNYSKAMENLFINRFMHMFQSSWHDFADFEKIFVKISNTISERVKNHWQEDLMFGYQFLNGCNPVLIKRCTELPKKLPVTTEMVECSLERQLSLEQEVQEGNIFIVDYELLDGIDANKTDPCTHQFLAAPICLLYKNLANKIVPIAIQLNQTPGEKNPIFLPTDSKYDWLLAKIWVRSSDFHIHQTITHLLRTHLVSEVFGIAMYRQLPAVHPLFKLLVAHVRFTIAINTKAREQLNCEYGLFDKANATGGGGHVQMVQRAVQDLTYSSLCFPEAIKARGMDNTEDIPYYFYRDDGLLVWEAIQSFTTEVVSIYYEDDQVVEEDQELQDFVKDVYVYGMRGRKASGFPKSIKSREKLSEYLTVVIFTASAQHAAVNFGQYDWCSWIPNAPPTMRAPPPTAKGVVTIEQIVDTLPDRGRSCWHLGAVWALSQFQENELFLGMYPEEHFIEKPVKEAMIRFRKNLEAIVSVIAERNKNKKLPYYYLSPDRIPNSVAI
# Experiment: ARBL Whole Cell 5-Lipoxygenase Assay in RBL-1 cells (LTB4 RIA)
# Type: cell-based
# Details: RBL-1 intact cell 5-lipoxygenase; A23187 5 μM
# Protocol: ARBL/ARBC Whole Cell 5-Lipoxygenase and Cyclooxygenase Assays
# The rat basophilic leukemia cell line (RBL-1) was obtained from the American Type Culture Collection (Rockville, Md.).
# Radioimmuno assay (RIA) kits of LTB4 and PGF2α were obtained from Amersham (Arlington Heights, Ill.) and Seragen (Boston, Mass.) respectively.
# All tissue culture media were obtained from GIBO (Gran Island, N.Y.).
# RBL-1 cells were grown in culture (suspension) in Eagle's minimum essential medium supplemented with 12% fetal bovine serum and 1:100 antibiotic-antimycotic mixture at 37° C. in an incubator supplied with air-5% carbon dioxide. Cells were harvested by centrifugation. They were washed with cold phosphate buffered saline pH 7.4 (PBS; NaCl, 7.1 g; Na2 HOP4, 1.15 g; KH2 PO4, 0.2 g; and KCl, 0.2 g/L). […] Calcium ionophore A23187 (5 μM) was added and cells were incubated for seven minutes at 37° C. The reaction was stopped by chilling the tubes in ice for ten minutes. Cells were separated by centrifugation and the supernatant was stored at -20°. Aliquots (100 μl) were analyzed for LTB4 and PGF2α using radioimmuno assay kits as provided by the supplier.
row,IC50 [nM],SMILES
1,1600,"COc1cc(C=Cc2cc(C=Cc3ccc(O)c(OC)c3)[nH]n2)ccc1O [Example 1, 3,5-Bis[β-(4'-hydroxy-3'-methoxyphenyl)ethenyl]pyrazole]"
2,800,"COc1cc(C=Cc2cc(C)n[nH]2)ccc1O [Example 5, 3-[β-(4'-Hydroxy-3'-methoxyphenyl)ethenyl]-5-methylpyrazole]"
3,9500,"Cc1cc(C=Cc2ccc(O)c(Cl)c2)n[nH]1 [Example 7, 3-[β-(4'-Hydroxy-3'-chlorophenyl)ethenyl]-5-methylpyrazole]"
